Assay results reported in US20140107021A1 (priority 2010, published 2014).
Read-outs that look alike come from different tables or passages of the source. Square brackets hold non-standard residues; d marks the D form. Side chains are listed from the residue outwards. Ends that are not written are not given here. Peptide text beside a SMILES is read from it. * marks the point of attachment. Carboxymethyl = O=C(O)C*; CH2CH2COOH = O=C(O)CC*

What was measured:
glucagon receptor [1] = biological target: T1, glucagon receptor (Homo sapiens, UniProt P47871); assay: glucagon receptor binding; design: expressed in transfected cells; host or cells: HEK293
glucagon receptor [2] = biological target: T1, glucagon receptor; assay: cell-based
Source text: HEK293 cells co-transfected with the receptor and luciferase gene linked to a cAMP responsive element were employed for the bioassay.
All EC50s and IC50s are reported in the following examples in nM, unless indicated otherwise.

[3] = Table G, average ±STD of at least three experiments, same values as receptor binding in Table I, read-out: IC50
[4] = Table H, same values as receptor binding in Table I, read-out: IC50
[5] = Table L, read-out: IC50(nM) (Receptor binding)
[6] = read-out: IC50(nM) (cΛMP, inhibit 0.2 mM Glucagon), Table L, inhibit 0.2 mM Glucagon
[7] = Table L, inhibit 0.2 mM Glucagon

T1 sequence (P47871 26-477): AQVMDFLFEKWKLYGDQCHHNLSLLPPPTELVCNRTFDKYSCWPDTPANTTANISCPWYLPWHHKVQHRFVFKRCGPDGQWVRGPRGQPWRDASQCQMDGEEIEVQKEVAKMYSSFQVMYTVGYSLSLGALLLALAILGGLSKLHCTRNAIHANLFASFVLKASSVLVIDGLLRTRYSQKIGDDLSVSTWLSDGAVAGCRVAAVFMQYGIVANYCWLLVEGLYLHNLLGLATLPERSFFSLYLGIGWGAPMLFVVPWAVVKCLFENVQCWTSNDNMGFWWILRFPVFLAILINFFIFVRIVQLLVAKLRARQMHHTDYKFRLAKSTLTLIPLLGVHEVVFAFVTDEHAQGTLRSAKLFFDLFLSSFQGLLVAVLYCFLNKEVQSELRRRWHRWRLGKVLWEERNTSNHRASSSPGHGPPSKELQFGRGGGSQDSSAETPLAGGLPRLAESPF

| Compound | IC50 (glucagon receptor [1]; [3]) [nM] | Kb (glucagon receptor [2]) [nM] | IC50 (glucagon receptor [1]; [5]) [nM] | IC50(nM) (cΛMP, inhibit 0.2 mM Glucagon) (glucagon receptor [2]; [7]) | also measured |
| --- | --- | --- | --- | --- | --- |
| CSCC[C@H](NC(=O)[C@H](CC(C)C)NC(=O)[C@H](Cc1c[nH]c2ccccc12)NC(=O)[C@H](CCC(N)=O)NC(=O)[C@@H](NC(=O)[C@H](Cc1ccccc1)NC(=O)[C@H](CC(=O)O)NC(=O)[C@H](CCC(N)=O)NC(=O)[C@H](C)NC(=O)[C@H](CCCNC(=N)N)NC(=O)[C@H](CCCNC(=N)N)NC(=O)[C@H](CO)NC(=O)[C@H](CC(=O)O)NC(=O)[C@H](CC(C)C)NC(=O)[C@H](Cc1ccc(O)cc1)NC(=O)[C@H](CCCCN)NC(=O)[C@H](CO)NC(=O)[C@H](Cc1ccc(O)cc1)NC(=O)[C@H](CCCC(=O)O)NC(=O)[C@H](CO)NC(=O)[C@@H](NC(=O)[C@@H](N)Cc1ccccc1)[C@@H](C)O)C(C)C)C(=O)N[C@@H](CC(N)=O)C(=O)N[C@H](C(N)=O)[C@@H](C)O [(hGlu^9]Glucagon(aa6-29)-NH2] (HELM PEPTIDE1{F.T.S.[O=C(O)CCC[C@H](N[*:1])C(=O)[*:2]].Y.S.K.Y.L.D.S.R.R.A.Q.D.F.V.Q.W.L.M.N.T.[am]}$$$$V2.0; N-terminus assumed) | 163 ± 70.8 | 537 |  |  | cAMP pA2 (glucagon receptor [2]; Table I): 6.27 ± 0.11 |
| CSCC[C@H](NC(=O)[C@H](CC(C)C)NC(=O)[C@H](Cc1c[nH]c2ccccc12)NC(=O)[C@H](CCC(N)=O)NC(=O)[C@@H](NC(=O)[C@H](Cc1ccccc1)NC(=O)[C@H](CC(=O)O)NC(=O)[C@H](CCC(N)=O)NC(=O)[C@H](C)NC(=O)[C@H](CCCNC(=N)N)NC(=O)[C@H](CCCNC(=N)N)NC(=O)[C@H](CO)NC(=O)[C@H](CC(=O)O)NC(=O)[C@H](CC(C)C)NC(=O)[C@H](Cc1ccc(O)cc1)NC(=O)[C@H](CCCCN)NC(=O)[C@H](CO)NC(=O)[C@H](Cc1ccc(O)cc1)NC(=O)[C@H](CSCC(=O)O)NC(=O)[C@H](CO)NC(=O)[C@@H](NC(=O)[C@@H](N)Cc1ccccc1)[C@@H](C)O)C(C)C)C(=O)N[C@@H](CC(N)=O)C(=O)N[C@H](C(N)=O)[C@@H](C)O [[(CSA-1)^9]Glucagon(aa6-29)-NII2, [C^9(SCH2COOH)]Glucagon(aa6-29)-NH2] (H-FTSC(Carboxymethyl)YSKYLDSRRAQDFVQWLMNT-NH2; N-terminus assumed) | 107 ± 5.37 | 209 |  |  | cAMP pA2 (glucagon receptor [2]; Table I): 6.68 ± 1.05 |
| CSCC[C@H](NC(=O)[C@H](CC(C)C)NC(=O)[C@H](Cc1c[nH]c2ccccc12)NC(=O)[C@H](CCC(N)=O)NC(=O)[C@@H](NC(=O)[C@H](Cc1ccccc1)NC(=O)[C@H](CC(=O)O)NC(=O)[C@H](CCC(N)=O)NC(=O)[C@H](C)NC(=O)[C@H](CCCNC(=N)N)NC(=O)[C@H](CCCNC(=N)N)NC(=O)[C@H](CO)NC(=O)[C@H](CC(=O)O)NC(=O)[C@H](CC(C)C)NC(=O)[C@H](Cc1ccc(O)cc1)NC(=O)[C@H](CCCCN)NC(=O)[C@H](CO)NC(=O)[C@H](Cc1ccc(O)cc1)NC(=O)[C@H](CSCCC(=O)O)NC(=O)[C@H](CO)NC(=O)[C@@H](NC(=O)[C@@H](N)Cc1ccccc1)[C@@H](C)O)C(C)C)C(=O)N[C@@H](CC(N)=O)C(=O)N[C@H](C(N)=O)[C@@H](C)O [[(CSA-2)^9]Glucagon(aa6-29)-NH2, [C^9(SCH2CH2COOH)]Glucagon(aa6-29)-NH2] (H-FTSC(CH2CH2COOH)YSKYLDSRRAQDFVQWLMNT-NH2; N-terminus assumed) | 146 ± 36.9 | 229 |  |  | cAMP pA2 (glucagon receptor [2]; Table I): 6.64 ± 0.29 |
| CSCC[C@H](NC(=O)[C@H](CC(C)C)NC(=O)[C@H](Cc1c[nH]c2ccccc12)NC(=O)[C@H](CCC(N)=O)NC(=O)[C@@H](NC(=O)[C@H](Cc1ccccc1)NC(=O)[C@H](CC(=O)O)NC(=O)[C@H](CCC(N)=O)NC(=O)[C@H](C)NC(=O)[C@H](CCCNC(=N)N)NC(=O)[C@H](CCCNC(=N)N)NC(=O)[C@H](CO)NC(=O)[C@H](CC(=O)O)NC(=O)[C@H](CC(C)C)NC(=O)[C@H](Cc1ccc(O)cc1)NC(=O)[C@H](CCCCN)NC(=O)[C@H](CO)NC(=O)[C@H](Cc1ccc(O)cc1)NC(=O)[C@H](CCS(=O)(=O)O)NC(=O)[C@H](CO)NC(=O)[C@@H](NC(=O)[C@H](Cc1ccccc1)NC(=O)[C@@H](NC(=O)CNC(=O)[C@H](CCC(N)=O)NC(=O)[C@@H](N)CO)[C@@H](C)O)[C@@H](C)O)C(C)C)C(=O)N[C@@H](CC(N)=O)C(=O)N[C@H](C(N)=O)[C@@H](C)O [[hCys^9(SO3H)]Glucagon(aa2-29)-NH2] |  |  |  |  | IC50 (glucagon receptor [1]; [4]): 13.2 ± 1 nM |
| CSCC[C@H](NC(=O)[C@H](CC(C)C)NC(=O)[C@H](Cc1c[nH]c2ccccc12)NC(=O)[C@H](CCC(N)=O)NC(=O)[C@@H](NC(=O)[C@H](Cc1ccccc1)NC(=O)[C@H](CC(=O)O)NC(=O)[C@H](CCC(N)=O)NC(=O)[C@H](C)NC(=O)[C@H](CCCNC(=N)N)NC(=O)[C@H](CCCNC(=N)N)NC(=O)[C@H](CO)NC(=O)[C@H](CC(=O)O)NC(=O)[C@H](CC(C)C)NC(=O)[C@H](Cc1ccc(O)cc1)NC(=O)[C@H](CCCCN)NC(=O)[C@H](CO)NC(=O)[C@H](Cc1ccc(O)cc1)NC(=O)[C@H](CCS(=O)(=O)O)NC(=O)[C@H](CO)NC(=O)[C@@H](NC(=O)[C@@H](N)Cc1ccccc1)[C@@H](C)O)C(C)C)C(=O)N[C@@H](CC(N)=O)C(=O)N[C@H](C(N)=O)[C@@H](C)O [[hCys^9(SO3H)]Glucagon(aa6-29)-NH2] (HELM PEPTIDE1{F.T.S.[O=C([C@H](CCS(=O)(=O)O)N[*:1])[*:2]].Y.S.K.Y.L.D.S.R.R.A.Q.D.F.V.Q.W.L.M.N.T.[am]}$$$$V2.0) |  | 69.2 |  |  | IC50 (glucagon receptor [1]; [4]): 59.1 ± 18.1 nM; cAMP pA2 (glucagon receptor [2]; Table I): 7.16 ± 0.51; IC50 (glucagon receptor [2]; cAMP IC50(nM), Table H): 133 nM |
| FTSEYSKYLDSRRAQDFVQWLMNT-NH2 [[Glu^9]Glucagon(aa6-29)-NH2] | 36.4 ± 5.23 | 69.2 |  |  | cAMP (I/A)50 (glucagon receptor [2]): 486; cAMP pA2 (glucagon receptor [2]): 7.16 ± 0.27 |
| H-LTFTSEYSKYLDSRRAQDFVQWLMNT-NH2 [[Leu^4, Glu^9]Glucagon(aa4-29)-NH2] | 36.4 ± 8.69 |  |  |  |  |
| SQGTTSDYSKYLDSRRAQDFVQWLMNT-NH2 [[desHis^1, desPhe^6]Glucagon-NH2] |  |  |  |  | IC50 (glucagon receptor [1]; Table E, read-out: Receptor Binding IC50): 130 ± 44.9 nM |
| TSEYSKYLDSRRAQDFVQWLMNT-NH2 [[Glu^9]Glucagon(aa7-29)-NH2] | > 10000 |  |  |  |  |
| [C5(1.2 kDaPEG), E9]Glucagon(aa5-29)-NII2 |  |  | 1080 ± 268 |  | IC50 (glucagon receptor [2]; [6]): 2280 nM |
| [C8(20 kDaPEG), E9]Glucagon(aa6-29)-NH2 (FTC(PEG 20 kDa)EYSKYLDSRRAQDFVQWLMNT-NH2) |  |  | > 1000 | no antagonism |  |
| [E9, C11(20 kDaPEG)]Glucagon(aa6-29)-NH2 (FTSEYC(PEG 20 kDa)KYLDSRRAQDFVQWLMNT-NH2) |  |  | > 1000 | no antagonism |  |
| [E9, C24(20 kDaPEG)]Glucagon(aa6-29)-NH2 (FTSEYSKYLDSRRAQDFVC(PEG 20 kDa)WLMNT-NH2; not fully specified (residue 1)) |  |  | > 1000 | no antagonism |  |
| [K5(CH2CH2S-20 kDaPEG), E9]Glucagon(aa5-29)-NH2 (K([CH2CH2S-PEG 20 kDa])FTSEYSKYLDSRRAQDFVQWLMNT-NH2) |  |  | > 10000 | no antagonism |  |
| [Phe6, E9, C24(20 kDaPEG)]Glucagon aa6-29)-NH2 (FTSEYSKYLDSRRAQDFVC(PEG20kDa)WLMNT-NH2) |  |  | > 10000 | no antagonism |  |
| [d-Cys5(20 kDaPEG, E9]Glucagon(aa5-29)-NH2 ([dC](PEG 20 kDa)FTSEYSKYLDSRRAQDFVQWLMNT-NH2) |  |  | > 10000 |  | IC50 (glucagon receptor [2]; [6]): 14800 nM |
